Here are results for 19 molecules from PMC11681159, “Bee pollen peptides as potent tyrosinase inhibitors with anti-melanogenesis effects in murine b16f10 melanoma cells and zebrafish embryos” (Scientific Reports, 2024).

The test system of one series is zebrafish embryos. Put plainly: Melanin inhibitory assay in zebrafish embryos. The series is classed as in vivo. As to conditions: PTU 0.0015%, vs control. On the procedure:
To perform the test of acute toxicity, a total of 20 fertilized zebrafish embryos were collected at around 4 h after fertilization and added to each well in a 12-well plate. These embryos then underwent treatment using different quantities of […] (2, 4, 6, 8, and 10 µM), while the negative control was distilled water and the positive control was 3,4-dichloroaniline. Incubation of the plate then took place until 48 h after fertilization at a temperature of 28.5 ± 1 °C. The test solutions were refreshed at 24 h after fertilization to allow the counting and removal of any dead embryos. Following exposure, a stereomicroscope (SZX16, Olympus, Japan) was used to record the embryo morphological effects. Meanwhile, a slightly modified version of a previously described melanin inhibitory assay was carried out[30]. The embryos were then homogenized using a cold lysis buffer (PBS pH 7.4, 1% Triton-X and 1% DMSF). The lysate then underwent 10 min of sonication before being placed in a centrifuge for 5 min at 10,000×g. The pellet was then removed from the centrifuge and dissolved in 200 µL of 1 N NaOH for 1 h at a temperature of 85 °C. This sample was subsequently vortexed and placed in the centrifuge for a further 5 min at 10,000×g. A microplate reader (Spectramax M5, Molecular Devices, USA) was then employed to determine the supernatant absorbance at 490 nm. Melanin content levels could then by calibrated by using the protein amount, and were reported in the form of a percentage compared to the untreated control. In the melanin inhibitory assay, the positive control used was phenylthiourea (PTU) solution (0.0015%).

The subject of another series is B16F10 melanoma cells. Put plainly: Melanin content assay in B16F10 cells. The series is classed as cell-based, mouse. As to conditions: arbutin 0.2 mM, 48 h, 405 nm. On the procedure:
In order to assess melanin content, culture flasks were used to grow B16F10 cells (1 × 10^5 cells/flask) for 24 h. […] Cell harvesting was conducted by trypsinization and the cells were then rinsed twice in cold PBS. The cell pellets were then dissolved in 0.3 mL of 1 N NaOH to produce solutions which were heated to 90 °C for a one-hour period. The lysates were then placed in a centrifuge for 10 min at 3,000 × g whereupon a microplate reader was used to assess the melanin quantity at 405 nm. The protein content in the supernatant was evaluated using the Bradford protein assay with the findings presented in the form of a percentage of the control. Arbutin (0.2 mM) served as the positive control. Each trial was carried out in triplicate, with results presented in the form of mean ± standard deviation.

A further series relates to skin. As to conditions: treatment of hyperpigmentation; cited from earlier work. An excerpt: In producing cosmetic products and functional foods, safety is of the highest priority during the formulation process.
The subject of the next series is mushroom TYR. On the set-up: method as in PMID 19440221. The note with it: cited from earlier work. From the text:
Abu Ubeid et al.[51]. conducted the screening of an internal library to identify the active oligopeptides capable of inhibiting TYR in mushrooms.

For series [1] the following is noted: presence of water or oxygen; cited from earlier work. An excerpt: (§1) One role of TYR, which is a binuclear copper enzyme, is to regulate melanogenesis. It acts as a catalyst for the hydroxylation of tyrosine and the oxidation of 3, 4-dihydroxyphenylalanine (L-DOPA) to o-dopaquinone which are the rate limiting reactions which occur during the synthesis of melanin. Skin color is dependent upon the level of melanin synthesis as well as the type of melanin and the way it is distributed through the keratinocytes. Achieving effective inhibition of TYR with minimal adverse side effects has remained a longstanding challenge within the realms of dermatological and cosme ...

In the next series the test system is cells. As to conditions: cited from earlier work.
Excerpt: as §1

Another series concerns A375 melanoma cells. The note with it: 0.5-1 mM; cited from earlier work.
The subject of another series is TYR. As to conditions: cited from earlier work. An excerpt: TIPs are now widely prepared via enzymatic hydrolysis, due to the ease of controlling the process and the absence of extreme reaction conditions. There are many commercially produced enzymes which are available to support TIP production, among which are trypsin, chymotrypsin, flavourzyme, alkaline protease, neutral protease, papain, and so forth. It is understood that different enzymes can differ in their hydrolytic impact upon a given material because the binding specificity between substrate and enzymes will vary. […] Further fractionation of the MW < 0.65 kDa ultrafiltrated fraction can be carried out by SEC using a Superdex 30 Increase column with a separation range of 100-7,000 Da. […] Where hydrophobic amino acids appear at each end of the peptide chain, this increases the interactivity with the copper active sites of TYR. Furthermore, it was reported by Wang et al.[33]. that a low-molecular-weight (700-1,700 Da) gelatin hydrolysate derived from the sea cucumber wall offered 55.7% hydrophobic amino acids. While the exterior environme ... || (+ 2 further places)

Another series has as its system TYR (di-phenolase). The note with it: cited from earlier work. An excerpt:
In order to check our own hypothesis concerning the ability of the peptide VY-9 to inhibit TYR, we created a synthetic peptide with a matching sequence to test the inhibition in the case of both mono-phenolase and di-phenolase forms. […] The plots can be seen in Fig. 3a-d, where four lines of differing gradients meet at the same intersection point for the vertical coordinate at varying concentrations of the VY-9 peptide.

The next series concerns TYR (mono-phenolase). As to conditions: cited from earlier work. From the text:
In order to check our own hypothesis concerning the ability of the peptide VY-9 to inhibit TYR, we created a synthetic peptide with a matching sequence to test the inhibition in the case of both mono-phenolase and di-phenolase forms. […] Ge et al.[34]. noting that hydrophobic interactions with hydrophobic side chains located at the active sites of TYR could be increased by inhibitors which have aromatic ring structures. […] For instance, Schurink et al.[38]. performed the screening of seven different peptides offering TYR inhibition from protein ... || In order to understand the VY-9 peptide mechanism for TYR inhibition, the inhibition mode was investigated through the analysis of Lineweaver-Burk plots. The plots can be seen in Fig. 3a-d, where four lines of differing gradients meet at the same intersection point for the vertical coordinate at varying concentrations of the VY-9 peptide.

The test system of the next series is melanoma cells. As to conditions: 500 µM; cited from earlier work.
A further series relates to human TYR. Also on record: method as in PMID 19440221. The note with it: cited from earlier work.
Another series concerns human melanocytes. Also on record: method as in PMID 19440221. The note with it: 100 µM, seven days; cited from earlier work.

In the case of `NC(=S)Nc1ccccc1` [PTU, phenylthiourea, reference compound], in the series with zebrafish embryos, the melanin content result is on record as “differed significantly (p < 0.01) to the control”.

As to `OC[C@H]1O[C@@H](Oc2ccc(O)cc2)[C@H](O)[C@@H](O)[C@@H]1O` [arbutin, reference compound], the “reduction in melanin content” value with B16F10 melanoma cells is 54.34%. As for `Oc1ccc(O)cc1` [hydroquinone], the undesirable side effects result in the series with skin is “contact dermatitis, irritation of the skin, and exogenous ochronosis”. In the series on mushroom TYR, the IC50 was 680 µM. Take `O=c1cc(CO)occ1O` [kojic acid]: the stability entry in [1] is “instability in the presence of water or oxygen”. Besides, the toxicity towards cells result with cells is “high degree of toxicity towards cells”. With `O=S(O)O` [sulfite], the stability entry in series [1] was “instability in the presence of water or oxygen”. Moreover, the toxicity towards cells entry in the series with cells is given as “high degree of toxicity towards cells”. Regarding ECGYF, the “melanin level in A375 cells” value in the series with A375 melanoma cells is listed as “able to lower the melanin levels in cultured A375 melanoma cells more effectively than arbutin or glutathione”. Besides, in the series with TYR, the “TYR inhibition vs arbutin and glutathione” value is “exceeded those of arbutin and glutathione”. The IC50 in the series with TYR (read-out: TYR inhibition IC50) was 460 µM. As to “GYSLGNWVCAAK [obtained from egg white protein]”, the inhibition type entry with TYR is “competitively inhibit TYR”. Take “HGGEGGRPY [CT-1, rice bran protein hydrolysate peptide]”: the “TYR inhibition, di-phenolase L-DOPA substrate reaction” value with TYR (di-phenolase) is listed as “did not do so in the di-phenolase L-DOPA substrate reaction”. Besides, the “TYR inhibition, mono-phenolase tyrosine substrate reaction” value in the series with TYR (mono-phenolase) is “notable TYR inhibition”.

As to “HPTSEVY [CT-3, rice bran protein hydrolysate peptide]”, the “TYR inhibition, di-phenolase L-DOPA substrate reaction” value with TYR (di-phenolase) is reported as “did not do so in the di-phenolase L-DOPA substrate reaction”. Besides, in the series on TYR (mono-phenolase), the “TYR inhibition, mono-phenolase tyrosine substrate reaction” value was “notable TYR inhibition”. On to IIPFIF, for which the “IC50 against TYR” value in the series with TYR is 6160 µg/mL. Take ILFTLL: in the series on TYR, the “IC50 against TYR” value is 9250 µg/mL. Take IQSPHFF [from Phage Display Library]: at TYR (di-phenolase) (competitive), the Ki was 765 µM. Also, the inhibition type entry in the series on TYR (di-phenolase) (di-phenolase) is “competitive inhibitor”.

As for “KFEKKFEK [oligopeptide of an internal library]”, the IC50 in the series on mushroom TYR was 3600 µM. With “LQPSHY [CT-2, rice bran protein hydrolysate peptide]”, the “TYR inhibition, di-phenolase L-DOPA substrate reaction” value in the series on TYR (di-phenolase) is listed as “did not do so in the di-phenolase L-DOPA substrate reaction”. Further, the “TYR inhibition, mono-phenolase tyrosine substrate reaction” value in the series with TYR (mono-phenolase) is “notable TYR inhibition”. Moreover, in the series on melanoma cells, the cytotoxic effects result was “no cytotoxic effects were recorded” and the melanogenesis inhibition is reported as more than 50%. Consider MRSRERSSWY [TH10], for which the half-inhibitory concentration (IC50) at TYR (mono-phenolase) (read-out: IC50 (tyrosine substrate of TYR)) is 102 µM. As to “RADSRADC [oligopeptide of an internal library]”, the “human TYR inhibition vs hydroquinone” value with human TYR was “to a greater extent than was the case with hydroquinone”. In addition, the IC50 in the series on mushroom TYR is 123 µM. In the series with human melanocytes, the “reduction in melanin content” value is on record as 27%. As for “SFLLRN [oligopeptide of an internal library]”, the IC50 in the series with mushroom TYR was 8000 µM. Regarding TIPPPT, the “IC50 against TYR” value in the series with TYR is 7590 µg/mL. As for “YRSRKYSSWY [P4, peptide from an earlier study]”, the “human TYR inhibition vs hydroquinone” value in the series with human TYR is given as “to a greater extent than was the case with hydroquinone”. Further, in the series on mushroom TYR, the 50% inhibitory concentration (IC50) is 40 µM. In addition, in the series on human melanocytes, the “reduction in melanin content” value is 43%.
